Where two headings read alike, the source gives them in different places.
Tests used:
Assay in all cases: biochemical
Parameters in all cases: KINOMEscan scanMAX competition binding, DNA-tagged kinases, qPCR read-out, percent control at 300 nM
[1] = molecular target: ACVR1B (Homo sapiens, UniProt P36896)
[2] = molecular target: T1, ABL1(E255K)-phosphorylated (Homo sapiens, UniProt P00519, E255K)
T1 construct: phosphorylated

[3] = molecular target: T2, QSK (Homo sapiens, UniProt Q9Y2K2)
T2 construct: gene SIK3
T2 sequence (Q9Y2K2 whole entry): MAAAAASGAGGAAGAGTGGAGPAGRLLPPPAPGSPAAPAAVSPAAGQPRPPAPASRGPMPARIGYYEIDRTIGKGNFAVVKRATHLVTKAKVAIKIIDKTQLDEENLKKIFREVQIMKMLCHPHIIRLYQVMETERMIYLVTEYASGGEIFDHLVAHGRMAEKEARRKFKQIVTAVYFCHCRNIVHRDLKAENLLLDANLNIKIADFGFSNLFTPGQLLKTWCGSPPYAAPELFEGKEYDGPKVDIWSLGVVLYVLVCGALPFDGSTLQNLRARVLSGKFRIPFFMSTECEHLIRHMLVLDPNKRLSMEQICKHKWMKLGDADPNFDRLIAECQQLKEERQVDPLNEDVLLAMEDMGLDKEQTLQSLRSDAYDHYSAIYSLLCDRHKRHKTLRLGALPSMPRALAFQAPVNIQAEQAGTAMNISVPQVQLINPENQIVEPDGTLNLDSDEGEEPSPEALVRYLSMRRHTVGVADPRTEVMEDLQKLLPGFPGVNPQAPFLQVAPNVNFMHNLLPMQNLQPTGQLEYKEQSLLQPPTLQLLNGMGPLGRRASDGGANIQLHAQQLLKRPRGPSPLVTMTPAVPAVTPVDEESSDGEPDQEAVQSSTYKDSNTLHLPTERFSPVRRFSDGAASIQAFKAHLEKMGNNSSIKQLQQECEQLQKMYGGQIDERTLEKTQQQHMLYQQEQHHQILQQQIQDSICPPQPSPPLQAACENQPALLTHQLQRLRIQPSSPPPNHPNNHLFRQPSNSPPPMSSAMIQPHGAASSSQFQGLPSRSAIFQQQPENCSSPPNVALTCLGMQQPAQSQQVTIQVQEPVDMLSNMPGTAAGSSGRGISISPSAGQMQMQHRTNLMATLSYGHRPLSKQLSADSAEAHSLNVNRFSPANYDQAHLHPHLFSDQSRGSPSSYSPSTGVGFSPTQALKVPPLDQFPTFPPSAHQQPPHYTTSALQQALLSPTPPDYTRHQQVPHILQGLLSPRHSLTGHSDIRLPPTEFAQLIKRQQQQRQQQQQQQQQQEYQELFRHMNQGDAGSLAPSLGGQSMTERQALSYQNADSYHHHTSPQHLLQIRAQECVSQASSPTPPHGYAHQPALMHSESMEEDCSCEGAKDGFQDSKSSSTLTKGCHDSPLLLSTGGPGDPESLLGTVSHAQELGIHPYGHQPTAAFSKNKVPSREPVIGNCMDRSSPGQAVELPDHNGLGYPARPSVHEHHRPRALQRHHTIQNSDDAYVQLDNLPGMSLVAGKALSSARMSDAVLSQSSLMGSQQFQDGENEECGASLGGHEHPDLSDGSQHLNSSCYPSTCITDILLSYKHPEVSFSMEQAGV

[4] = molecular target: T3, ERK2 (Homo sapiens, UniProt P28482)
T3 construct: gene MAPK1

[5] = molecular target: RET (Homo sapiens, UniProt P07949)
Sequence of RET (P07949 whole entry): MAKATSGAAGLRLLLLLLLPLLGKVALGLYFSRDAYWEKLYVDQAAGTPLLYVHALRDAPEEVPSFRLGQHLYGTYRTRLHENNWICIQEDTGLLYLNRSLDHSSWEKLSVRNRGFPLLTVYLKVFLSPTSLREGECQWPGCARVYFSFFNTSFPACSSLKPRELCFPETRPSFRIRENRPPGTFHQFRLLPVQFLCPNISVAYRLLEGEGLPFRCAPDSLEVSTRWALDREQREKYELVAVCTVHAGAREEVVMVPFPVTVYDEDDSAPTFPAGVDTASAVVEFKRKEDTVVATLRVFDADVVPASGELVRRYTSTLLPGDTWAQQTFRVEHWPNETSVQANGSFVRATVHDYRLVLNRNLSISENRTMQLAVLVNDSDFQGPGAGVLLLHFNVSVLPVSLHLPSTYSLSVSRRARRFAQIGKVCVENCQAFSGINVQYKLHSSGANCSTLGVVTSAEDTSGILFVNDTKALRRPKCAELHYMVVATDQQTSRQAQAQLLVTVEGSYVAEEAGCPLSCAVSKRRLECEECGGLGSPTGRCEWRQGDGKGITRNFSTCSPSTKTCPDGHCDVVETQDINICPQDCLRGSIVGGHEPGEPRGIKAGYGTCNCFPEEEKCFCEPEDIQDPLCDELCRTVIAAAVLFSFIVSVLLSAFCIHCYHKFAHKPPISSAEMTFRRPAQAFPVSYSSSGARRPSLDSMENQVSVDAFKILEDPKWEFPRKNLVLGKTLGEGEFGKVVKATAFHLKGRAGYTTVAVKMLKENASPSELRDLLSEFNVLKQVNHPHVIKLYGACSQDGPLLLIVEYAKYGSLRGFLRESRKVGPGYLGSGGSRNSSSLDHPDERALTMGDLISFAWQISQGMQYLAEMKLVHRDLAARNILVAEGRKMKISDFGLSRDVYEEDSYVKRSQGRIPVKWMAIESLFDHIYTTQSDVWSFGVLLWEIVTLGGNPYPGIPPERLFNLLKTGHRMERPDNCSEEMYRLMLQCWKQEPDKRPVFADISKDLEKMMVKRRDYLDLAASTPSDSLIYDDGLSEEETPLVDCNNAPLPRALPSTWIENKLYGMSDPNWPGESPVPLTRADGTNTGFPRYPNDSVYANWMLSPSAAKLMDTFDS

[6] = molecular target: T4, ARK5 (Homo sapiens, UniProt O60285)
T4 construct: gene NUAK1

[7] = molecular target: EGFR(S752-I759del) (Homo sapiens, UniProt P00533, DEL752-759)
[8] = molecular target: CDKL1 (Homo sapiens, UniProt Q00532)
Sequence of CDKL1 (Q00532 whole entry): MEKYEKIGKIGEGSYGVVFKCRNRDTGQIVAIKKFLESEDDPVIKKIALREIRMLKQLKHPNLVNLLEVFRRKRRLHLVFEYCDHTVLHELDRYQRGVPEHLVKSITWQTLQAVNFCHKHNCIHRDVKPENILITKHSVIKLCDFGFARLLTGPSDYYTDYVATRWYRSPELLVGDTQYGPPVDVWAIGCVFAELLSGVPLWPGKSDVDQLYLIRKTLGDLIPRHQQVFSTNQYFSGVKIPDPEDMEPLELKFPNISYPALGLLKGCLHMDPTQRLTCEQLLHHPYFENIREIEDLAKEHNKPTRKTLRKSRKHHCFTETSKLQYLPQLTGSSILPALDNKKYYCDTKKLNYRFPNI

[9] = molecular target: FYN (Homo sapiens, UniProt P06241)
[10] = molecular target: T5, ADCK4 (Homo sapiens, UniProt Q96D53)
T5 construct: gene COQ8B

[11] = molecular target: ACVR2B (Homo sapiens, UniProt Q13705)
[12] = molecular target: IRAK4 (Homo sapiens, UniProt Q9NWZ3)
[13] = molecular target: FLT3(ITD) (Homo sapiens, UniProt P36888, ITD)
[14] = molecular target: CHEK2 (Homo sapiens, UniProt O96017)
[15] = molecular target: KIT(A829P) (Homo sapiens, UniProt P10721, A829P)
[16] = molecular target: INSRR (Homo sapiens, UniProt P14616)
[17] = molecular target: T6, GCN2(Kin.Dom.2,S808G) (Homo sapiens, UniProt Q9P2K8, S808G)
T6 construct: gene EIF2AK4; Kin.Dom.2

[18] = molecular target: CAMK2D (Homo sapiens, UniProt Q13557)
Sequence of CAMK2D (Q13557 whole entry): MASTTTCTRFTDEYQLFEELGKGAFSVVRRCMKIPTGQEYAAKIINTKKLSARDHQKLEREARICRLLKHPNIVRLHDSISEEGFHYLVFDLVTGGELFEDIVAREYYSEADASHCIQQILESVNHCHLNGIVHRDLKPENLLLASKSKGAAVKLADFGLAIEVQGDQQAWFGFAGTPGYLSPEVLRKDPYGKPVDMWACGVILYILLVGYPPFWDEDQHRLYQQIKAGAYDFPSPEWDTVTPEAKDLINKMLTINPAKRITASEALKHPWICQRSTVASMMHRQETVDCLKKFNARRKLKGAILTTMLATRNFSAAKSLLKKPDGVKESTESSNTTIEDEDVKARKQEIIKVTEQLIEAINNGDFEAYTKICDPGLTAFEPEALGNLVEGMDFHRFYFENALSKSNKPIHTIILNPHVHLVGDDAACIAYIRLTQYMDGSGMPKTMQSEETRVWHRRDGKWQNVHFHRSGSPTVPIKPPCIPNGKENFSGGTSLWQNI

[19] = molecular target: NEK1 (Homo sapiens, UniProt Q96PY6)
Sequence of NEK1 (Q96PY6 whole entry): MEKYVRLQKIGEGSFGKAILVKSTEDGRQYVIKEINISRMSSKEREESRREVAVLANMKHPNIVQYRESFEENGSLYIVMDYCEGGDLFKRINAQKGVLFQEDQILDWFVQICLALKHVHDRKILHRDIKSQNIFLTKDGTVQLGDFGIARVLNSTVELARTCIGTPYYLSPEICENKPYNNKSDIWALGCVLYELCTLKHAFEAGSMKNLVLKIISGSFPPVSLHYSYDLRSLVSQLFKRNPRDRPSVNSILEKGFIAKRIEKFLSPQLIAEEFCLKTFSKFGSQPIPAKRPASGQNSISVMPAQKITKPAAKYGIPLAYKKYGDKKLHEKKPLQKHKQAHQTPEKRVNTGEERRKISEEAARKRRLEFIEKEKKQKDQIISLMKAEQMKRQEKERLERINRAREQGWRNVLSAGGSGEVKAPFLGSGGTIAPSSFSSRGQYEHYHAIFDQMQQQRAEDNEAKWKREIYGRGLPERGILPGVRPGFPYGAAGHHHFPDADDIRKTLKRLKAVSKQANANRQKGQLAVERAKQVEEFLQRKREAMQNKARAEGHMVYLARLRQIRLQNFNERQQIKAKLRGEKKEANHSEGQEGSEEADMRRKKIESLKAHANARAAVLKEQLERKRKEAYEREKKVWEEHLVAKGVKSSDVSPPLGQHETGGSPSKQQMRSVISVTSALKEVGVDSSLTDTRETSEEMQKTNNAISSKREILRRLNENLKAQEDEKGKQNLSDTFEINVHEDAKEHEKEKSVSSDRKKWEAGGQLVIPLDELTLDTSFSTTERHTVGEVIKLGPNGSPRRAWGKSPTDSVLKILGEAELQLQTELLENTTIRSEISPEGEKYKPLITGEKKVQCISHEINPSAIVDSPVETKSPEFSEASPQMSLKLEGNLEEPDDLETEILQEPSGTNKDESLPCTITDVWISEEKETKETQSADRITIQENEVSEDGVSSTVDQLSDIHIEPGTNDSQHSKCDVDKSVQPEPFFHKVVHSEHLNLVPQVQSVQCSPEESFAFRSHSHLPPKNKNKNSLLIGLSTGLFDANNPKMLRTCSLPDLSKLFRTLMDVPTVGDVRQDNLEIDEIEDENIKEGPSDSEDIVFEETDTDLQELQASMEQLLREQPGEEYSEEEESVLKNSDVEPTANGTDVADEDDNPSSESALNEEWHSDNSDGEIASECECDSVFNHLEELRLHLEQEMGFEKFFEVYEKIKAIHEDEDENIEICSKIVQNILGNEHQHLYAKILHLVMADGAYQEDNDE

[20] = molecular target: T7, RSK3(Kin.Dom.2-C-terminal) (Homo sapiens, UniProt Q15349)
T7 construct: gene RPS6KA2; Kin.Dom.2-C-terminal

[21] = molecular target: HCK (Homo sapiens, UniProt P08631)
Sequence of HCK (P08631 whole entry): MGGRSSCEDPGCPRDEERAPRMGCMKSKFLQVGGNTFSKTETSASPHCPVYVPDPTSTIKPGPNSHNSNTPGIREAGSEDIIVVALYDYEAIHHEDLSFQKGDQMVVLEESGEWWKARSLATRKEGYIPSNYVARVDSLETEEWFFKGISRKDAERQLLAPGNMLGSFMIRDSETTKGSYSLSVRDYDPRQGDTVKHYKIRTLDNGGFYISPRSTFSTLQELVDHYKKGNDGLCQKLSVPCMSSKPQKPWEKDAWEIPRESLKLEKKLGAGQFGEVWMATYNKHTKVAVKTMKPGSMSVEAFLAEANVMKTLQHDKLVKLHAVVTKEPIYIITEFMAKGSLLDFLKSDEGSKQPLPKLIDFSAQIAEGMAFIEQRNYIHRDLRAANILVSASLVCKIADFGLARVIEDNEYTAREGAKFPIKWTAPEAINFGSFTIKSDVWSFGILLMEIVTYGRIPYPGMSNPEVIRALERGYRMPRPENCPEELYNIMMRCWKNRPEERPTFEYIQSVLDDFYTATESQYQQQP

[22] = molecular target: BMPR1B (Homo sapiens, UniProt O00238)
[23] = molecular target: T8, RPS6KA5(Kin.Dom.1-N-terminal) (Homo sapiens, UniProt O75582)
T8 construct: Kin.Dom.1-N-terminal

[24] = read-out: Percent control / Acalabrutinib
[25] = read-out: Percent control / Ibrutinib
[26] = read-out: Percent control / Tirabrutinib
[27] = read-out: Percent control / Zanubrutinib

Compound `CC#CC(=O)N1CCC[C@H]1c1nc(-c2ccc(C(=O)Nc3ccccn3)cc2)c2c(N)nccn12` [Acalabrutinib] has a remaining binding at 0.3 µM [1, 24] of 99%, a remaining binding at 0.3 µM [2, 24] of 95% and a remaining binding at 0.3 µM [3, 24] of 90%. The remaining binding at 0.3 µM [4, 24] was 96%, the remaining binding at 0.3 µM [5, 24] was 87% and the remaining binding at 0.3 µM [6, 24] was 69%. It also gave a remaining binding at 0.3 µM [7, 24] of 97%, a remaining binding at 0.3 µM [8, 24] of 93% and a remaining binding at 0.3 µM [9, 24] of 95%. For the same compound, the remaining binding at 0.3 µM [10, 24] was 96%, the remaining binding at 0.3 µM [11, 24] was 85% and the remaining binding at 0.3 µM [12, 24] was 97%. It also gave a remaining binding at 0.3 µM [13, 24] of 85%, a remaining binding at 0.3 µM [14, 24] of 84% and a remaining binding at 0.3 µM [15, 24] of 80%. It also gave a remaining binding at 0.3 µM [16, 24] of 91%, a remaining binding at 0.3 µM [17, 24] of 91% and a remaining binding at 0.3 µM [18, 24] of 93%.

`C=CC(=O)N1CCC[C@@H](n2nc(-c3ccc(Oc4ccccc4)cc3)c3c(N)ncnc32)C1` [Ibrutinib] was tested, and the remaining binding at 0.3 µM [19, 25] was 96%, the remaining binding at 0.3 µM [5, 25] was 40% and the remaining binding at 0.3 µM [20, 25] was 90%. It also gave a remaining binding at 0.3 µM [9, 25] of 19% and a remaining binding at 0.3 µM [21, 25] of 4.5%.

Compound `CC#CC(=O)N1CC[C@@H](n2c(=O)n(-c3ccc(Oc4ccccc4)cc3)c3c(N)ncnc32)C1` [Tirabrutinib] has a remaining binding at 0.3 µM [22, 26] of 98%, a remaining binding at 0.3 µM [7, 26] of 96% and a remaining binding at 0.3 µM [23, 26] of 80%. For the same compound, the remaining binding at 0.3 µM [21, 26] was 57% and the remaining binding at 0.3 µM [13, 26] was 82%.

`C=CC(=O)N1CCC([C@@H]2CCNc3c(C(N)=O)c(-c4ccc(Oc5ccccc5)cc4)nn32)CC1` [Zanubrutinib] gave a remaining binding at 0.3 µM [22, 27] of 98%, a remaining binding at 0.3 µM [1, 27] of 92% and a remaining binding at 0.3 µM [19, 27] of 54%. It also gave a remaining binding at 0.3 µM [2, 27] of 80%, a remaining binding at 0.3 µM [3, 27] of 45% and a remaining binding at 0.3 µM [4, 27] of 100%. It also gave a remaining binding at 0.3 µM [6, 27] of 94%, a remaining binding at 0.3 µM [8, 27] of 82% and a remaining binding at 0.3 µM [20, 27] of 84%. For the same compound, the remaining binding at 0.3 µM [23, 27] was 100%, the remaining binding at 0.3 µM [10, 27] was 100% and the remaining binding at 0.3 µM [11, 27] was 91%. It also gave a remaining binding at 0.3 µM [12, 27] of 91%, a remaining binding at 0.3 µM [14, 27] of 98% and a remaining binding at 0.3 µM [15, 27] of 97%. It also gave a remaining binding at 0.3 µM [16, 27] of 96%, a remaining binding at 0.3 µM [17, 27] of 100% and a remaining binding at 0.3 µM [18, 27] of 80%.
